Experimental data taken from patent US8906909B2 (Curis, Inc., priority 2009, dated 2014).
Read-outs that look alike come from different tables or passages of the source.

How the values were obtained:
[1] = test system: HDACs (HeLa cell nuclear extracts); test: HDAC enzymatic activity, Biomol Color de Lys system; assay type: biochemical
In short: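 HeLa nuclear extract as HDAC source with Color de Lys substrate in 50 mM Tris/Cl pH 8.0, 137 mM NaCl, 2.7 mM KCl, 1 mM MgCl2. Serially diluted compounds reacted 1 h at 25 °C, then developer added; fluorescence (Ex 350–380/Em 440–460) fitted sigmoidally for IC50.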

[2] = test system: MDA-MB-436 cells; test: Cell proliferation assay Method B, MDA-MB-436; assay type: cell-based; settings: Homo sapiens, 72 hours, read-out: antiproliferative activity IC50, MDA-MB-436
Protocol: (§1) Cancer cell lines were plated at 5,000 to 10,000 per well in 96-well flat bottomed plates with various concentration of compounds. The cells were incubated with compounds for 72 hours in the presence of 0.5% of fetal bovine serum. Growth inhibition was accessed by adenosine triphosphate (ATP) content assay using Promega CellTiter-Glo kit. Promega CellTiter-Glo kit is an ATP monitoring system based on firefly luciferase. Briefly, 16 μl of mammalian cell lysis and substrate solution was added to 84 μl of culture medium per well to lyse the cells and stabilize the ATP. The mixture was shaken and incubated for 30 minutes and subsequently the luminescence was measured.

[3] = test system: U87MG cells; test: Cell proliferation assay Method B, U87MG; assay type: cell-based; settings: Homo sapiens, U-87 MG, Glioblastoma, 72 hours, read-out: antiproliferative activity IC50, U87MG
Protocol: as §1

[4] = test system: BT-474 cells; test: Cell proliferation assay Method A (ATPlite), BT-474; assay type: cell-based; settings: Homo sapiens, 72 hours, read-out: antiproliferative activity IC50, BT-474
Protocol: (§2) Cancer cell lines were plated at 5,000 to 10,000 per well in 96-well flat bottomed plates with various concentration of compounds. The cells were incubated with compounds for 72 hours in the presence of 0.5% of fetal bovine serum. Growth inhibition was accessed by adenosine triphosphate (ATP) content assay using Perkin Elmer ATPlite kit. ATPlite is an ATP monitoring system based on firefly luciferase. Briefly, 25 μl of mammalian cell lysis solution was added to 50 μl of phenol red-free culture medium per well to lyse the cells and stabilize the ATP. 25 μl of substrate solution was then added to the well and subsequently the luminescence was measured.

[5] = test system: MDA-MB-468 cells; test: Cell proliferation assay Method B, MDA-MB-468; assay type: cell-based; settings: Homo sapiens, 72 hours, read-out: antiproliferative activity IC50, MDA-MB-468
Protocol: as §1

[6] = test system: Sk-Mel-28 cells; test: Cell proliferation assay Method B, Sk-Mel-28; assay type: cell-based; settings: Homo sapiens, Melanoma, 72 hours, read-out: antiproliferative activity IC50, Sk-Mel-28
Protocol: as §1

[7] = test system: H1993 cells; test: Cell proliferation assay Method B, H1993; assay type: cell-based; settings: Homo sapiens, NCI-H1993, NSCLC, 72 hours, read-out: antiproliferative activity IC50, H1993
Protocol: as §1

[8] = test system: A375 cells; test: Cell proliferation assay Method B, A375; assay type: cell-based; settings: Homo sapiens, A-375, Melanoma, 72 hours, read-out: antiproliferative activity IC50, A375
Protocol: as §1

[9] = test system: Sk-Mel-28 cells; test: Cell proliferation assay Method A (ATPlite), Sk-Mel-28; assay type: cell-based; settings: Homo sapiens, 72 hours, read-out: antiproliferative activity IC50, Sk-Mel-28
Protocol: as §2

[10] = test system: HCT-118 cells; test: Cell proliferation assay Method A (ATPlite), HCT-118; assay type: cell-based; settings: 72 hours, read-out: antiproliferative activity IC50, HCT-118
Protocol: as §2

[11] = test system: H1975 cells; test: Cell proliferation assay Method B, H1975; assay type: cell-based; settings: Homo sapiens, NCI-H1975, NSCLC, 72 hours, read-out: antiproliferative activity IC50, H1975
Protocol: as §1

[12] = test system: HCC1937 cells; test: Cell proliferation assay Method B, HCC1937; assay type: cell-based; settings: Homo sapiens, 72 hours, read-out: antiproliferative activity IC50, HCC1937
Protocol: as §1

[13] = test system: BT474 cells; test: Cell proliferation assay Method B, BT474; assay type: cell-based; settings: Homo sapiens, BT-474, 72 hours, read-out: antiproliferative activity IC50, BT474
Protocol: as §1

[14] = test system: H1993 cells; test: Cell proliferation assay Method A (ATPlite), H1993; assay type: cell-based; settings: Homo sapiens, NCI-H1993, 72 hours, read-out: antiproliferative activity IC50, H1993
Protocol: as §2

[15] = test system: Ca127 cells; test: Cell proliferation assay Method B, Ca127; assay type: cell-based; settings: HNC; Ca127; 72 hours, 0.5% fetal bovine serum, CellTiter-Glo; read-out: antiproliferative activity IC50, Ca127
Protocol: as §1

[16] = test system: RPMI-8226 cells; test: Cell proliferation assay Method B, RPMI-8226; assay type: cell-based; settings: Homo sapiens, Multiple Myeloma, 72 hours, read-out: antiproliferative activity IC50, RPMI-8226
Protocol: as §1

[17] = test system: MDA-MB-231 cells; test: Cell proliferation assay Method B, MDA-MB-231; assay type: cell-based; settings: Homo sapiens, 72 hours, 0.5% fetal bovine serum, CellTiter-Glo, read-out: antiproliferative activity IC50, MDA-MB-231
Protocol: as §1

[18] = 0.5% fetal bovine serum, CellTiter-Glo
[19] = U87MG, 0.5% fetal bovine serum, CellTiter-Glo
[20] = Sk-Mel-28, 0.5% fetal bovine serum, CellTiter-Glo
[21] = A375, 0.5% fetal bovine serum, CellTiter-Glo
[22] = H1975, 0.5% fetal bovine serum, CellTiter-Glo
[23] = BT474, 0.5% fetal bovine serum, CellTiter-Glo
[24] = H1993, 0.5% fetal bovine serum, CellTiter-Glo

Structure (SMILES) | IC50 [1] [nM] | IC50 ([2]; Breast, Method B) [nM] | IC50 ([3]; Method B) [nM] | IC50 [4] [nM] | IC50 ([5]; Breast, Method B) [nM] | IC50 [10] [nM] | melting point [°C] | IC50 [14] [nM] | IC50 [2, 18] [nM] | IC50 [3, 19] [nM] | IC50 [5, 18] [nM] | IC50 [8, 21] [nM] | IC50 [11, 22] [nM] | IC50 [12, 18] [nM] | IC50 [13, 23] [nM] | IC50 [7, 24] [nM] | IC50 ([6]; SK-MEL-28, Method B) [nM] | IC50 [9] [nM] | IC50 [6, 20] [nM] | IC50 [15] [nM] | further results
CN(Cc1cc2nc(-c3cccc4[nH]ncc34)nc(N3CCOCC3)c2s1)c1ncc(C(=O)NO)cn1 [Compound 54, 2-(((2-(1H-indazol-4-yl)-4-morpholinothieno[3,2-d]pyrimidin-6-yl)methyl)(methyl)amino)-N-hydroxypyrimidine-5-carboxamide] | < 100 |  |  | < 100 |  | < 100 | 197 to 200 | < 100 |  | 10 to 100 | < 10 |  | 10 to 100 | 10 to 100 | < 10 | 10 to 100 |  | < 100 | 10 to 100 |  | 
CC(=O)Nc1ccc(-c2nc(N3CCOCC3)c3sc(CN(C)c4ncc(C(=O)NO)cn4)cc3n2)cc1 [Compound 157, 2-(((2-(4-acetamidophenyl)-4-morpholinothieno[3,2-d]pyrimidin-6-yl)methyl)(methyl)amino)-N-hydroxypyrimidine-5-carboxamide] | < 100 |  |  |  |  |  | 228 to 230 |  | 10 to 100 | 10 to 100 | 10 to 100 | 10 to 100 | 10 to 100 |  | < 10 | 10 to 100 |  |  | 10 to 100 | 10 to 100 | IC50 [16, 18]: 10 to 100 nM; IC50 [17]: 10 to 100 nM
CN(Cc1cc2nc(-c3ccc(N)nc3)nc(N3CCOCC3)c2s1)c1ncc(C(=O)NO)cn1 [Compound 110, 2-(((2-(6-Aminopyridin-3-yl)-4-morpholinothieno[3,2-d]pyrimidin-6-yl)methyl)(methyl)amino)-N-hydroxypyrimidine-5-carboxamide] | < 100 |  |  | < 100 |  | < 100 | 175 to 181 | < 100 | 10 to 100 | < 10 | 10 to 100 | 10 to 100 | 10 to 100 | 10 to 100 | < 10 | 10 to 100 |  | < 100 | 10 to 100 | 10 to 100 | IC50 [17]: 10 to 100 nM
CN(Cc1cc2nc(-c3cccc(O)c3)nc(N3CCOCC3)c2s1)c1ncc(C(=O)NO)cn1 [Compound 132, N-hydroxy-2-(((2-(3-hydroxyphenyl)-4-morpholinothieno[3,2-d]pyrimidin-6-yl)methyl)(methyl)amino)pyrimidine-5-carboxamide] | < 100 |  |  | < 100 |  | < 100 | 175 to 181 | < 100 | 10 to 100 | 10 to 100 | 100 to 1000 | 10 to 100 | 10 to 100 | 100 to 1000 | < 10 | 10 to 100 |  | < 100 | 10 to 100 | 10 to 100 | IC50 [16, 18]: < 10 nM
CNc1ncc(-c2nc(N3CCOCC3)c3sc(CN(C)c4ncc(C(=O)NO)cn4)cc3n2)cn1 [Compound 116, N-hydroxy-2-(methyl((2-(2-(methylamino)pyrimidin-5-yl)-4-morpholinothieno[3,2-d]pyrimidin-6-yl)methyl)amino)pyrimidine-5-carboxamide] | < 100 | 10 to 100 | 10 to 100 | < 100 | 10 to 100 | < 100 | 183 to 187 | < 100 |  |  |  |  |  |  |  |  | < 10 | < 100 |  |  | IC50 ([16]; Method B): < 10 nM; IC50 ([7]; Method B): 10 to 100 nM; IC50 ([8]; Method B): 10 to 100 nM; IC50 ([11]; Method B): 10 to 100 nM; IC50 ([12]; Breast, Method B): 10 to 100 nM; IC50 ([13]; Breast, Method B): 10 to 100 nM

Further lines, with some results ahead:

IC50 [1] [nM] | IC50 ([2]; Breast, Method B) [nM] | IC50 ([3]; Method B) [nM] | IC50 [4] [nM] | IC50 ([5]; Breast, Method B) [nM] | IC50 [10] [nM] | melting point [°C] | IC50 [14] [nM] | IC50 [2, 18] [nM] | IC50 [3, 19] [nM] | IC50 [5, 18] [nM] | IC50 [8, 21] [nM] | IC50 [11, 22] [nM] | IC50 [12, 18] [nM] | IC50 [13, 23] [nM] | IC50 [7, 24] [nM] | Structure (SMILES) | IC50 ([6]; SK-MEL-28, Method B) [nM] | IC50 [9] [nM] | IC50 [6, 20] [nM] | IC50 [15] [nM] | further results
< 100 | 10 to 100 | < 10 | < 100 | 10 to 100 | < 100 | 160 to 164 | < 100 |  |  |  |  |  |  |  |  | CN(Cc1cc2nc(-c3cccc(CO)c3)nc(N3CCOCC3)c2s1)c1ncc(C(=O)NO)cn1 [Compound 138, N-hydroxy-2-(((2-(3-(hydroxymethyl)phenyl)-4-morpholinothieno[3,2-d]pyrimidin-6-yl)methyl)(methyl)amino)pyrimidine-5-carboxamide] | 10 to 100 | < 100 |  |  | IC50 ([7]; Method B): 10 to 100 nM; IC50 ([8]; Method B): 10 to 100 nM; IC50 ([11]; Method B): 10 to 100 nM; IC50 ([12]; Breast, Method B): 10 to 100 nM; IC50 ([13]; Breast, Method B): < 10 nM
< 100 |  |  | < 100 |  | < 100 | 175 to 181 | < 100 | 100 to 1000 | 10 to 100 | 100 to 1000 | 10 to 100 | 10 to 100 | 10 to 100 | 10 to 100 |  | CN(Cc1cc2nc(-c3cnc(N)nc3)nc(N3CCOCC3)c2s1)c1ncc(C(=O)NO)cn1 [Compound 115, 2-(((2-(2-aminopyrimidin-5-yl)-4-morpholinothieno[3,2-d]pyrimidin-6-yl)methyl)(methyl)amino)-N-hydroxypyrimidine-5-carboxamide] |  | < 100 | 10 to 100 | 10 to 100 | 
< 100 | 10 to 100 | 10 to 100 |  | 10 to 100 |  | 184 to 186 |  |  |  |  |  |  |  |  |  | Cc1ncc(-c2nc(N3CCOCC3)c3sc(CN(C)c4ncc(C(=O)NO)cn4)cc3n2)cn1 [Compound 120, N-hydroxy-2-(methyl((2-(2-methylpyrimidin-5-yl)-4-morpholinothieno[3,2-d]pyrimidin-6-yl)methyl)amino)pyrimidine-5-carboxamide] | 10 to 100 |  |  |  | IC50 ([16]; Method B): < 10 nM; IC50 ([7]; Method B): 10 to 100 nM; IC50 ([8]; Method B): 10 to 100 nM; IC50 ([11]; Method B): 10 to 100 nM; IC50 ([12]; Breast, Method B): 10 to 100 nM; IC50 ([13]; Breast, Method B): 10 to 100 nM
